The target of this assay is T1, human CTPS1 (Homo sapiens, UniProt P17812).
T1 construct: purchased Proteros biostructures GmbH
T1 sequence (P17812 1-591): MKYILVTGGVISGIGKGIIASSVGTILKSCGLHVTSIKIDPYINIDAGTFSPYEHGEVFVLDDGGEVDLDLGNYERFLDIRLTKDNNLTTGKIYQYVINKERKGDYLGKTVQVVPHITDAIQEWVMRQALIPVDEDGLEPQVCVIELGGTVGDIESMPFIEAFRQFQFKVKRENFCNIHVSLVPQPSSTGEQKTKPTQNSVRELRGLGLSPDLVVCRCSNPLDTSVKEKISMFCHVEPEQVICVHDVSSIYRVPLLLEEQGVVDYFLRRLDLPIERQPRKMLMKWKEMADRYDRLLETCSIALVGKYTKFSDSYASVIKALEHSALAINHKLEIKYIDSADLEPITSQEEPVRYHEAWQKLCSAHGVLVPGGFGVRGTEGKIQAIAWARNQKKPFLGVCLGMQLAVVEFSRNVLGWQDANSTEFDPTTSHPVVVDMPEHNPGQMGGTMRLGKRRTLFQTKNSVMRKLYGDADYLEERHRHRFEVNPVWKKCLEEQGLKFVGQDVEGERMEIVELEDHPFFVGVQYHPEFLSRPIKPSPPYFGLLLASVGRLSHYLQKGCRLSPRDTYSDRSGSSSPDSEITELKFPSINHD
As to the kind of experiment: Human CTPS1 enzyme inhibition (ADP-Glo Max assay). In kind it is biochemical. As to conditions: Table 23; ADP-Glo Max assay; read-out: CTPS1 (Human CTPS1 Enzyme Inhibition data grouped by potency range, IC50). The procedure:
Biological Example 1—Human CTPS1 Enzyme Inhibition
The enzyme inhibitory activities of compounds invented against the target of interest were determined using the ADP-Glo™ Max assay (Promega, UK). Assays for human CTPS1 were performed in 1× assay buffer containing 50 mM Tris, 10 mM MgCl2, 0.01% Tween-20, pH to 8.0 accordingly. Finally, immediately before use, L-cysteine was added to the 1× assay buffer to a final concentration of 2 mM. All reagents are from Sigma-Aldrich unless specified otherwise. Human full length active C-terminal FLAG-Hiss-tag CTPS1 (UniProtKB-P17812, CTPS[1-591]-[…]) was obtained from Proteros biostructures GmbH.
3× human CTPS1 protein was prepared in 1× assay buffer to the final working protein concentration required for the reaction. A 2 uL volume per well of 3× human CTPS1 protein was mixed with 2 uL per well of 3× test compound (compound prepared in 1× assay buffer to an appropriate final 3× compound concentration respective to the concentration response curve designed for the compounds under test) for 10 minutes at 25° C. The enzymatic reaction was then initiated by addition of a 2 uL per well volume of a pre-mixed substrate mix (UltraPure ATP from ADP-Glo™ Max kit (0.31 mM), GTP (0.034 mM), UTP (0.48 mM) and L-glutamine (0.186 mM)) and the mixture was incubated for an appropriate amount of time within the determined linear phase of the reaction at 25° C. under sealed plate conditions with constant agitation at 500 revolutions per minute (rpm). ADP-Glo™ Max reagent was added for 60 minutes (6 μL per well) and subsequently ADP-Glo™ Max development reagent was added for 60 minutes (12 uL per well) prior to signal detection in a microplate reader (EnVision® Multilabel Reader, Perkin Elmer). Following each reagent addition over the course of the assay, assay plates were pulse centrifuged for 30 seconds at 500 rpm.
In all cases, the enzyme converts ATP to ADP and the ADP-Glo™ Max reagent subsequently depletes any remaining endogenous ATP in the reaction system. The ADP-Glo™ Max detection reagent converts the ADP that has been enzymatically produced back into ATP and using ATP as a substrate together with luciferin for the enzyme luciferase, light is generated which produces a detectable luminescence. […] The percentage inhibition produced by each concentration of compound was calculated using the equation shown below: […]
Percentage inhibition was then plotted against compound concentration, and the 50% inhibitory concentration (IC50) was determined from the resultant concentration-response curve.

Broadly, the IC50 is the concentration that inhibits the measured activity by half. Turning to `CC(C)(C(=O)Nc1ccc(-c2cncc(OC(F)F)c2)cc1)c1ccnc(NS(=O)(=O)C2CC2)n1` [Example P55], the IC50 was at most 100 nM. Take `COc1cncc(-c2ccc(NC(=O)C(C)(C)c3ccnc(NS(=O)(=O)C4CC4)n3)cc2)c1` [Example P56]: the IC50 was in the range of 100 to 1000 nM. Take `CCOc1cncc(-c2ccc(NC(=O)C(C)(C)c3ccnc(NS(=O)(=O)C4CC4)n3)cc2)c1` [Example P57]: the IC50 lay in the range of 100 to 1000 nM.

As to `CC(C)Oc1cncc(-c2ccc(NC(=O)C(C)(C)c3ccnc(NS(=O)(=O)C4CC4)n3)cc2)c1` [Example P58], the IC50 lay in the range of 100 to 1000 nM. As for `CC(C)(C(=O)Nc1ccc(-c2cccc(C(F)(F)F)c2)cc1)c1ccnc(NS(=O)(=O)C2CC2)n1` [Example P60], the IC50 was in the range of 1000 to 10000 nM. With `CC(C)(C(=O)Nc1ccc(-c2cccc(Cl)c2)cc1)c1ccnc(NS(=O)(=O)C2CC2)n1` [Example P61], the half-maximal inhibitory concentration (IC50) was 1000 to 10000 nM. Turning to `CC(C)(C(=O)Nc1ccc(-c2cccc(C#N)c2)cc1)c1ccnc(NS(=O)(=O)C2CC2)n1` [Example P62], the IC50 fell in the range of 1000 to 10000 nM. For `CCOc1cccc(-c2ccc(NC(=O)C(C)(C)c3ccnc(NS(=O)(=O)C4CC4)n3)cc2)c1` [Example P63], the IC50 lay in the range of 10000 to 20000 nM.

Turning to `CC(C)(C(=O)Nc1ccc(-c2cncc(C(F)(F)F)n2)cc1)c1ccnc(NS(=O)(=O)C2CC2)n1` [Example P64], the IC50 was at most 100 nM.

Consider `CCOc1cncc(-c2ccc(NC(=O)C(C)(C)c3ccnc(NS(=O)(=O)C4CC4)n3)cc2)n1` [Example P65], for which the IC50 is at most 100 nM. Turning to `CC(C)(C(=O)Nc1ccc(-c2cncc(OC3CC3)n2)cc1)c1ccnc(NS(=O)(=O)C2CC2)n1` [Example P66], the IC50 lay within 100 to 1000 nM. The value for `CC(C)Oc1cncc(-c2ccc(NC(=O)C(C)(C)c3ccnc(NS(=O)(=O)C4CC4)n3)cc2)n1` [Example P67] was at most 100 nM; that for `CCOc1cncc(-c2ccc(NC(=O)C(C)(C)c3ccnc(NS(=O)(=O)C4(C)CC4)n3)cc2)n1` [Example P69] was 100 to 1000 nM. For `CC(C)(C(=O)Nc1ccc(-c2cnccn2)cc1)c1ccnc(NS(=O)(=O)C2CC2)n1` [Example P71], the half-inhibitory concentration (IC50) fell in the range of 1000 to 10000 nM.

In the case of `CCOc1cncc(-c2ccc(NC(=O)C(C)(C)c3ccnc(NS(=O)(=O)CC)n3)c(F)c2)n1` [Example P72], the IC50 lay in the range of 100 to 1000 nM.

For `CCS(=O)(=O)Nc1nccc(C(C)(C)C(=O)Nc2ccc(-c3cncc(C(F)(F)F)n3)cc2)n1` [Example P73], the IC50 fell in the range of 100 to 1000 nM. For `CCOc1cncc(-c2cnc(NC(=O)C(C)(C)c3ccnc(NS(C)(=O)=O)n3)c(F)c2)n1` [Example P75] the value was 100 to 1000 nM. With `CC(C)Oc1cncc(-c2ccc(NC(=O)C(C)(C)c3ccnc(NS(C)(=O)=O)n3)c(F)c2)c1` [Example P77], the IC50 lay in the range of 1000 to 10000 nM. On to `CC(C)Oc1cncc(-c2ccc(NC(=O)C(C)(C)c3ccnc(NS(C)(=O)=O)n3)c(F)c2)n1` [Example P78], for which the IC50 fell in the range of 100 to 1000 nM. With `Cc1cc(-c2cncc(C(F)(F)F)n2)ccc1NC(=O)C(C)(C)c1ccnc(NS(C)(=O)=O)n1` [Example P79], the IC50 was in the range of 100 to 1000 nM. For `CC(C)(C(=O)Nc1ccc(-c2cncc(C(F)(F)F)n2)cc1)c1ccnc(NS(C)(=O)=O)n1` [Example P80], the IC50 was in the range of 100 to 1000 nM. Regarding `CCOc1cncc(-c2ccc(NC(=O)C(C)(C)c3ccnc(NS(C)(=O)=O)n3)cc2)n1` [Example P81], the IC50 was at most 100 nM. On to `CCOc1cncc(-c2ccc(NC(=O)C(C)(C)c3ccnc(NS(=O)(=O)C(C)(C)C)n3)cc2)n1` [Example P82], for which the IC50 fell in the range of 1000 to 10000 nM. Take `CC(C)c1cncc(-c2ccc(NC(=O)C(C)(C)c3ccnc(NS(=O)(=O)C4CC4)n3)nc2)n1` [Example P116, 2-(2-(Cyclopropanesulfonamido)pyrimidin-4-yl)-N-(5-(6-isopropylpyrazin-2-yl)pyridin-2-yl)-2-methylpropanamide]: the IC50 is 100 to 1000 nM. In the case of `CCOc1cncc(-c2ccc(NC(=O)C(F)(F)c3ccnc(NS(=O)(=O)C4CC4)n3)c(F)c2)n1` [Example P117], the IC50 was at most 100 nM. `C=C(C)c1cncc(-c2ccc(NC(=O)C(C)(C)c3ccnc(NS(=O)(=O)C4CC4)n3)nc2)n1` [Example P122, 2-(2-(cyclopropanesulfonamido)pyrimidin-4-yl)-2-methyl-N-(5-(6-(prop-1-en-2-yl)pyrazin-2-yl)pyridin-2-yl)propanamide]: the IC50 was in the range of 100 to 1000 nM. As to `CCOc1cncc(-c2ccc(NC(=O)C(C)(C)c3cc(C)nc(NS(=O)(=O)C4CC4)n3)nc2)n1` [Example P123], the IC50 was 100 to 1000 nM.

In the case of `CCOc1cncc(-c2ccc(NC(=O)C(C)(C)c3cc(C(F)(F)F)nc(NS(=O)(=O)C4CC4)n3)nc2)n1` [Example P124], the IC50 lay within 100 to 1000 nM. For the compound `CCOc1cncc(-c2ccc(NC(=O)C(C)(C)c3ccnc(NS(=O)(=O)C4CC4)n3)cn2)n1` [Example P126], the IC50 was at most 100 nM. The value for `CCOc1cncc(-c2ccc(NC(=O)C(C)(C)c3cc(C)nc(NS(=O)(=O)C4CC4)n3)c(F)c2)n1` [Example P129] was 100 to 1000 nM; that for `CCOc1cncc(-c2ccc(NC(=O)C(C)(C)c3cc(C(F)(F)F)nc(NS(=O)(=O)C4CC4)n3)c(F)c2)n1` [Example P130] was 100 to 1000 nM. Take `C=C(C)c1cncc(-c2ccc(NC(=O)C(C)(C)c3ccnc(NS(=O)(=O)C4CC4)n3)cc2)n1` [Example P131]: the IC50 fell in the range of 100 to 1000 nM. On to `CN(C)c1cncc(-c2ccc(NC(=O)C(C)(C)c3ccnc(NS(=O)(=O)C4CC4)n3)cc2)n1` [Example P133], for which the IC50 was in the range of 1000 to 10000 nM.

Regarding `CCOc1cncc(-c2ccc(NC(=O)C(C)(C)c3cc(C)nc(NS(=O)(=O)C4CC4)n3)cc2)n1` [Example P134], the IC50 lay within 100 to 1000 nM. Consider `CCOc1cncc(-c2ccc(NC(=O)C(C)(C)c3cc(C(F)(F)F)nc(NS(=O)(=O)C4CC4)n3)cc2)n1` [Example P135], for which the IC50 lay in the range of 100 to 1000 nM. For `CCOc1cncc(-c2ccc(NC(=O)C3(c4ccnc(NS(=O)(=O)C5CC5)n4)CCOCC3)cc2)n1` [Example P137] the value was at most 100 nM; for `CCOc1cncc(-c2ccc(NC(=O)C3(c4ccnc(NS(C)(=O)=O)n4)CCNCC3)nc2)n1` [Example P138], 100 to 1000 nM; for `CCOc1cncc(-c2ccc(NC(=O)C3(c4ccnc(NS(=O)(=O)C5CC5)n4)CCN(C(=O)OC(C)(C)C)CC3)nc2)n1` [Example P139], 100 to 1000 nM. The value for `CCOc1cncc(-c2ccc(NC(=O)C3(c4ccnc(NS(=O)(=O)C5CC5)n4)CCNCC3)nc2)n1` [Example P140] was 100 to 1000 nM; that for `CCOc1cncc(-c2ccc(NC(=O)C3(c4ccnc(NS(=O)(=O)C5CC5)n4)CN(C(=O)OC(C)(C)C)C3)nc2)n1` [Example P141] was 100 to 1000 nM; that for `CCOc1cncc(-c2ccc(NC(=O)C3(c4ccnc(NS(C)(=O)=O)n4)CCN(C(=O)OC(C)(C)C)CC3)nc2)n1` [Example P142] was 100 to 1000 nM. As to `CCOc1cncc(-c2cnc(NC(=O)C(CCOC)c3ccnc(NS(=O)(=O)C4CC4)n3)c(F)c2)n1` (stereo not shown) [Example P144], the IC50 was at most 100 nM.

Take `CCOc1cncc(-c2ccc(NC(=O)C(C)(CCOC)c3ccnc(NS(C)(=O)=O)n3)nc2)n1` (stereo not shown) [Example P147]: the IC50 fell in the range of 100 to 1000 nM.

As for `CCC(C(=O)Nc1ccc(-c2cncc(Cl)c2)cn1)c1ccnc(NS(=O)(=O)C2CC2)n1` (stereo not shown) [Example P148], the IC50 was at most 100 nM.

For `CCC(F)(C(=O)Nc1ccc(-c2cncc(Cl)c2)cn1)c1ccnc(NS(=O)(=O)C2CC2)n1` (stereo not shown) [Example P149], the half-maximal inhibitory concentration (IC50) is at most 100 nM. For `CCC(F)(C(=O)Nc1ccc(-c2cncc(C3CC3)n2)cn1)c1ccnc(NS(=O)(=O)C2CC2)n1` (stereo not shown) [Example P150], the IC50 was at most 100 nM.

These data come from patent US20230002352A1, “SULFONAMIDE DERIVATIVES AS CTPS1 INHIBITORS” (Step Pharma S.A.S., priority 2019, published 2023).
